Tests used:
[1] = DRUGMATRIX: Interleukin IL-1 radioligand binding (ligand: [125I] interleukin 1beta); type: cell membranes, Membrane; details: nih3t3; Not Active = under 50% inhibition at 10 µM
Substance-P receptor = Substance-P receptor (Homo sapiens, UniProt P25103); type: cell membranes, Membrane; details: cho; note: in other assays of this panel Not Active means under 50% inhibition at 10 µM
[2] = DRUGMATRIX: Phosphodiesterase PDE4 enzyme inhibition (substrate: [3H]cAMP + cAMP); details: u-937; Not Active = under 50% inhibition at 10 µM
[3] = target: Tyrosine-protein kinase Fyn (Homo sapiens, UniProt P06241); experiment: biochemical; type: cell-based, Insect cells;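 note: enzymatic inhibition of Fyn kinase activity measured with Poly(Glu:Tyr) as the phosphorylation substrate; in other assays of this panel Not Active means under 50% inhibition at 10 µM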
Chain of Tyrosine-protein kinase Fyn (P06241 whole entry): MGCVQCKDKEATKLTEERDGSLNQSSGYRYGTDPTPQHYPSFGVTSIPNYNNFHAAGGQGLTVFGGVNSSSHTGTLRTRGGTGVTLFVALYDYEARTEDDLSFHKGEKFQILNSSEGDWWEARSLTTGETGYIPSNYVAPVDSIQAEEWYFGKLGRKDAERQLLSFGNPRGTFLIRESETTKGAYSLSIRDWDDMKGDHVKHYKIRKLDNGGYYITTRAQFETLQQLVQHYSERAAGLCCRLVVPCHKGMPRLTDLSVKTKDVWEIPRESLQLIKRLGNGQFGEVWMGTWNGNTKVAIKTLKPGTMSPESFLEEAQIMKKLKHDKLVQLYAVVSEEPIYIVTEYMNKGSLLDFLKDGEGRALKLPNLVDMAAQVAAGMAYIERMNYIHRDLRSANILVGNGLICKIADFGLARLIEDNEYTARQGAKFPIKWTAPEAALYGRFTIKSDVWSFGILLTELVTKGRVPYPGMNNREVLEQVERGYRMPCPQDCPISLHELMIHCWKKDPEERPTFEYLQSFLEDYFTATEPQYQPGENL

[4] = DRUGMATRIX: GABAA, Chloride Channel, TBOB radioligand binding (ligand: [3H] TBOB); type: cell membranes, Rattus norvegicus, Wistar, Cerebral cortex, Membrane; details: Not Active = under 50% inhibition at 10 µM
[5] = target: cGMP-specific 3',5'-cyclic phosphodiesterase (Homo sapiens, UniProt O76074); experiment: DRUGMATRIX: Phosphodiesterase PDE5 enzyme inhibition (substrate: [3H]cGMP + cGMP); type: tissue-based; details: platelet; Not Active = under 50% inhibition at 10 µM
[6] = target: Beta-1 adrenergic receptor (Homo sapiens, UniProt P08588); experiment: DRUGMATRIX: Adrenergic beta1 radioligand binding (ligand: [125I] Cyanopindolol); type: cell membranes, CHO-K1, Membrane; details: Not Active = under 50% inhibition at 10 µM
Chain of Beta-1 adrenergic receptor (P08588 whole entry): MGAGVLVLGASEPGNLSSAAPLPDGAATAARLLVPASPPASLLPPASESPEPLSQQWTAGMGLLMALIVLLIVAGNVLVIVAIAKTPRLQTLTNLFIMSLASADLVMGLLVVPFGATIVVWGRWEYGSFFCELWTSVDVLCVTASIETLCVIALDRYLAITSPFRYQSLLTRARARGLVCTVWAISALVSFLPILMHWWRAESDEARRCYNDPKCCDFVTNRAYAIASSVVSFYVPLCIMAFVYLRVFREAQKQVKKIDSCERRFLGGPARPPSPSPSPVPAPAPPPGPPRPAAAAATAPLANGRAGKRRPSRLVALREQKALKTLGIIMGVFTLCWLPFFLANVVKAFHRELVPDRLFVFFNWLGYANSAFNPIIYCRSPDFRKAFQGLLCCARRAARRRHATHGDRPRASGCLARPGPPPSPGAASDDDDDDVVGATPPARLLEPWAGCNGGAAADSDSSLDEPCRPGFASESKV

[7] = DRUGMATRIX: Tumor Necrosis Factor (TNF), Non-Selective radioligand binding (ligand: [125I] TNF-alpha); type: cell membranes, Membrane; details: u-937; Not Active = under 50% inhibition at 10 µM
[8] = target: T1, Neuropeptide Y receptor type 2 (Homo sapiens, UniProt P49146); type: cell membranes, Membrane; details: kan-ts; note: in other assays of this panel Not Active means under 50% inhibition at 10 µM
T1 sequence (P49146 whole entry): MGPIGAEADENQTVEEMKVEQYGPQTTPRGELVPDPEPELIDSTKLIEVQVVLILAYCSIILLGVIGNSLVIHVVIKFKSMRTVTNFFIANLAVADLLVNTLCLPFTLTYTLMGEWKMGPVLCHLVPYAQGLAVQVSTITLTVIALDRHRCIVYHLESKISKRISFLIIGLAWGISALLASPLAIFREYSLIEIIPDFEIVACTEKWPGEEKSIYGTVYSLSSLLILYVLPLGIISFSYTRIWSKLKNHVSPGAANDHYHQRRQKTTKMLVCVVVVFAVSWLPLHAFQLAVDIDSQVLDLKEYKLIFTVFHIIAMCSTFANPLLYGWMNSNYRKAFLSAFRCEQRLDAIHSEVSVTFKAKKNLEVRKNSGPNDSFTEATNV

[9] = target: T2, 3-hydroxy-3-methylglutaryl-coenzyme A reductase (Homo sapiens, UniProt P04035); parameters: species or system Escherichia coli;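 note: enzyme inhibition assay of HMG-CoA reductase using radiolabeled [14C]HMG-CoA as substrate; in other assays of this panel Not Active means under 50% inhibition at 10 µM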
T2 sequence (P04035 whole entry): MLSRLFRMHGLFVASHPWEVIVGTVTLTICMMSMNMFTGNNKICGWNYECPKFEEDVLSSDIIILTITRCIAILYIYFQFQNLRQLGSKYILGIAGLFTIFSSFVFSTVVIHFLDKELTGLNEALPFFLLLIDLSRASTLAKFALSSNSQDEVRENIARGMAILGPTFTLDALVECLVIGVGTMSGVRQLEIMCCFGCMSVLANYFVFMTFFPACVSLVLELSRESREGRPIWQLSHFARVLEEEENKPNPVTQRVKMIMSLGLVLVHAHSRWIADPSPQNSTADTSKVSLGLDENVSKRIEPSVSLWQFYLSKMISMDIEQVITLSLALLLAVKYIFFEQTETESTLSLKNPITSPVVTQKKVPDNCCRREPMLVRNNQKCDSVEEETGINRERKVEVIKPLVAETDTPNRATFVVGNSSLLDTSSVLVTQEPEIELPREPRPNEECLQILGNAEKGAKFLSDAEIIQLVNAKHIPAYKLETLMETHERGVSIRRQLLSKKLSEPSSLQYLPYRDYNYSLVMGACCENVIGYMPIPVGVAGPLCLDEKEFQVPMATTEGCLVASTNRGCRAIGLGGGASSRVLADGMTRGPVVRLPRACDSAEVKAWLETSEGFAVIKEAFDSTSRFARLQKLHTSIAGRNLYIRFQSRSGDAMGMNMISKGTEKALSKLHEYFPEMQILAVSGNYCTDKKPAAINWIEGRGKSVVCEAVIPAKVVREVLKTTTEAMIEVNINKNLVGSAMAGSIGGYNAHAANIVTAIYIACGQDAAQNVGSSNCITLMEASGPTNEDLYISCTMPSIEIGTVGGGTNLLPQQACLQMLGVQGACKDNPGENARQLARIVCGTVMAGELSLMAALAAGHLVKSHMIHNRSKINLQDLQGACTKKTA

Calcitonin receptor = target: T3, Calcitonin receptor (Homo sapiens, UniProt P30988); type: cell membranes, Membrane; details: t47d; note: in other assays of this panel Not Active means under 50% inhibition at 10 µM
T3 sequence (P30988 whole entry): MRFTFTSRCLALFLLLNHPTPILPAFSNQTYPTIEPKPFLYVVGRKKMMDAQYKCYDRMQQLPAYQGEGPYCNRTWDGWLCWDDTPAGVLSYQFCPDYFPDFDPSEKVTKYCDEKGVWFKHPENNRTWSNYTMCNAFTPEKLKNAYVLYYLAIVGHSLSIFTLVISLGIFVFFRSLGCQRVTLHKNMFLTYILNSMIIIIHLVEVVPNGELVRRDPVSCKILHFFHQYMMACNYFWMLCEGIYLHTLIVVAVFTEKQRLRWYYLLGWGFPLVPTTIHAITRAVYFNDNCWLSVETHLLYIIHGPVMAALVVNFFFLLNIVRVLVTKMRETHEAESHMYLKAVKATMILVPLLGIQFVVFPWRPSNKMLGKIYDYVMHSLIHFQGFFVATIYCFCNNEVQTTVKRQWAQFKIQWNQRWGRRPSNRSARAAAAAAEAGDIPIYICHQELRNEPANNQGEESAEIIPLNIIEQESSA

Chain of Substance-P receptor (P25103 whole entry): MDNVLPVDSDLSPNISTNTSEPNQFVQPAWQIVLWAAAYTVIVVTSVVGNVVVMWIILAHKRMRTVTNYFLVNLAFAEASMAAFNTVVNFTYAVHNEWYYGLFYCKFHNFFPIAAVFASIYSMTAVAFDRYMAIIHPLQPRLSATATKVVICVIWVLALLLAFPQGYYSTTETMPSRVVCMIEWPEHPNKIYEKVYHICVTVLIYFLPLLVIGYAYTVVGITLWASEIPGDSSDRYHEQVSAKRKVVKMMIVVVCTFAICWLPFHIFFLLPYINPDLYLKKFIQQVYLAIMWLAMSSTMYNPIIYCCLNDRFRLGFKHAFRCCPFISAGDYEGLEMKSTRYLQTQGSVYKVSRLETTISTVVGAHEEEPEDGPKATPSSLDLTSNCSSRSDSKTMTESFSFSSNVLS

Compound | IC50 [1] | Ki [1] | IC50 (Substance-P receptor) | IC50 [2] | Ki [2] | IC50 ([3]; insect cells) | IC50 [4] | Ki [4] | IC50 [5] | IC50 ([6]; cho-k1) | IC50 [7] | Ki [7] | IC50 [8] | IC50 [9] | IC50 (Calcitonin receptor) | IC50 ([3]; read-out: IC50) | IC50 ([6]; read-out: IC50) | Ki ([6]; read-out: Ki)
CC1=C(CC(=O)O)c2cc(F)ccc2/C1=C\c1ccc([S+](C)[O-])cc1 (configuration not stated) | Not Active | Not Active | Not Active | Not Active | Not Active | Not Active | Not Active | Not Active | Not Active | Not Active | Not Active | Not Active | Not Active | Not Active | Not Active | – | – | –
N[C@H](CSC(=S)NCc1ccccc1)C(=O)O | Not Active | Not Active | Not Active | Not Active | Not Active | Not Active | Not Active | Not Active | Not Active | Not Active | Not Active | Not Active | Not Active | Not Active | Not Active | – | – | –
CC(=O)N[C@@H]1[C@H](Oc2c3cc4cc2Oc2ccc(cc2Cl)[C@@H](O[C@@H]2O[C@@H](CO)[C@@H](O)[C@H](O)[C@@H]2NC(C)=O)[C@@H]2NC(=O)[C@H](NC(=O)[C@@H]4NC(=O)[C@H]4NC(=O)[C@@H](Cc5ccc(c(Cl)c5)O3)NC(=O)[C@H](N)c3ccc(O)c(c3)Oc3cc(O)cc4c3)c3ccc(O)c(c3)-c3c(O[C@H]4O[C@H](CO)[C@@H](O)[C@@H](O)[C@@H]4O)cc(O)cc3[C@@H](C(=O)O)NC2=O)O[C@@H](CO)[C@@H](O)[C@@H]1O | Not Active | Not Active | Not Active | Not Active | Not Active | Not Active | Not Active | Not Active | Not Active | Not Active | Not Active | Not Active | Not Active | Not Active | Not Active | – | – | –
Clc1ccc2c(c1)C(N1CCNCC1)=Nc1ccccc1O2 [AMOXAPINE] | – | – | Not Active | – | – | Not Active | – | – | Not Active | Not Active | – | – | Not Active | Not Active | Not Active | – | – | –
COc1cc2c(c(OC)c1OC)-c1ccc(OC)c(=O)cc1[C@@H](NC(C)=O)CC2 [COLCHICINE] | – | – | Not Active | – | – | Not Active | – | – | Not Active | Not Active | – | – | Not Active | Not Active | Not Active | – | – | –
CN1CCC(=C2c3ccccc3C=Cc3ccccc32)CC1 [CYPROHEPTADINE] | – | – | Not Active | – | – | Not Active | – | – | Not Active | Not Active | – | – | Not Active | Not Active | Not Active | – | – | –
CC/C(=C(/CC)c1ccc(O)cc1)c1ccc(O)cc1 [DIETHYLSTILBESTROL] | – | – | Not Active | – | – | – | – | – | Not Active | – | – | – | Not Active | Not Active | Not Active | 14.2 µM | 22.1 µM | 12.8 µM
CC(=O)N1CCN(c2ccc(OCC3COC(Cn4ccnc4)(c4ccc(Cl)cc4Cl)O3)cc2)CC1 (configuration not stated) [KETOCONAZOLE] | Not Active | Not Active | Not Active | Not Active | Not Active | Not Active | Not Active | Not Active | Not Active | Not Active | Not Active | Not Active | Not Active | Not Active | Not Active | – | – | –
C=CCN1CC[C@]23c4c5ccc(O)c4O[C@H]2C(=O)CC[C@@]3(O)[C@H]1C5 [NALOXONE] | – | – | Not Active | – | – | Not Active | – | – | Not Active | Not Active | – | – | Not Active | Not Active | Not Active | – | – | –
CC(C)NCC(O)COc1cccc2ccccc12 (configuration not stated) [PROPRANOLOL] | – | – | Not Active | – | – | Not Active | – | – | Not Active | – | – | – | Not Active | Not Active | Not Active | – | – | –

— ChEMBL document CHEMBL1909046, “DrugMatrix in vitro pharmacology data”
